Each structure is given as a SMILES string.

The source of these data is US20020137929A1, “1 - (3-heterocyclylphenyl) isothiourea, -isourea, -guanidine and -amidine herbicidal agents” (Intellectual Property Department, BASF Aktiengesellschaft, priority 1998, published 2002).

The subject of assay [1] is TRZAWR (Wheat, Winter, cv Riband). Description: Postemergence herbicidal evaluation. It is filed as in vivo, Triticum aestivum. Conditions: for TRZAWR herbicidal rating: postemergence. An outline of the steps: (§1)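 Seedlings grown about two weeks were sprayed at 40 psi with compound dispersed in 50/50 acetone/water plus 0.5% TWEEN 20, at about 0.0156 to 0.500 kg/ha. Plants were kept in the greenhouse and scored 4–5 weeks later on a 0–9 visual scale against untreated controls.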

Assay [2] has as its system CHEAL (Lambsquarters, Common). Description: Postemergence herbicidal evaluation. Particulars: for CHEAL herbicidal rating: postemergence. It is filed as in vivo, Chenopodium album. An outline of the steps: as §1
Assay [3] relates to MOOVA (Monochoria). Description: Postemergence weed control under flooded paddy conditions. It is filed as in vivo, Monochoria vaginalis. Particulars: postemergence weeds. An outline of the steps:
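Injury ratings (0–9 scale covering stand, vigor, malformation, size, chlorosis and overall appearance versus control) were made three to four weeks after treatment. Test material, about 0.0313 to 0.500 kg/ha a.i. in 50/50 v/v aqueous/acetone, was added to flood water 1.5 to 3 cm deep over 3 to 5 cm weeds and 1.5 to 2.5 leaf rice.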

For assay [4], the system named is CASOB (Sicklepod). Description: Postemergence herbicidal evaluation. It is filed as in vivo, Cassia obtusifolia. Particulars: for CASOB herbicidal rating: postemergence. The method in brief:
as §1

Assay [5] has as its system CHEAL (Lambsquarters, Common). Description: Preemergence herbicidal evaluation. It is filed as in vivo, Chenopodium album. Particulars: rated 4-5 weeks after treatment; for CHEAL rating: preemergence, 0-9 scale. The method in brief: (§2)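 Visual 0-9 rating vs control (stand, vigor, malformation, size, chlorosis, overall appearance), scored 4-5 wk after spraying. Seeded soil cups were treated preemergence with compound in aqueous acetone, ~0.0156-0.500 kg/ha equivalent.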

The subject of assay [6] is ORYSAT (Rice, Tebonnet). Description: Preemergence herbicidal evaluation. It counts as in vivo, Oryza sativa, (L.) Tebonnet. Particulars: rated 4-5 weeks after treatment; for ORYSAT rating: preemergence, 0-9 scale. The method in brief:
as §2

Where [7] appears, read: Rate 0.0313 kg/ha, rated 3 to 4 weeks after treatment.
[8] abbreviates: Rate 0.0625 kg/ha, rated 3 to 4 weeks after treatment.
Setting [9] is: Rate 0.1250 kg/ha, rated 3 to 4 weeks after treatment.
Where [10] appears, read: Rate 0.2500 kg/ha, rated 3 to 4 weeks after treatment.
The mark [11] stands for this setting: rate 0.0313 kg/ha, 3-4 weeks after treatment.
[12] abbreviates: rate 0.0625 kg/ha, 3-4 weeks after treatment.
The mark [13] stands for this setting: rate 0.1250 kg/ha, 3-4 weeks after treatment.
Setting [14] is: rate 0.2500 kg/ha, 3-4 weeks after treatment.

Regarding `CC(C)OC(=O)CC1SC(=Nc2cc(-n3c(=O)cc(C(F)(F)F)n(C)c3=O)c(F)cc2Cl)N(C)C1=O` (stereo not drawn) [Compound 89, Isopropyl 2-{{2-chloro-5-[3,6-dihydro-3-methyl-2,6-dioxo-4-(trifluoromethyl)-1(2H)-pyrimidinyl]-4-fluorophenyl}imino}-3-methyl-4-oxo-5-thiazolidineacetate], the TRZAWR herbicidal rating in assay [1] (rate 0.0158 kg/ha) came to 5.5; in assay [1] (rate 0.0313 kg/ha), 7.0; in assay [1] (rate 0.0625 kg/ha) it was 7.0; in assay [1] (rate 0.1250 kg/ha) it was 7.0. The CHEAL herbicidal rating was found to be 4.0 in assay [2] (rate 0.0158 kg/ha), 9.0 in assay [2] (rate 0.0313 kg/ha), 9.0 in assay [2] (rate 0.0625 kg/ha) and 9.0 in assay [2] (rate 0.1250 kg/ha). Moreover, the “Herbicidal rating MOOVA” value in assay [3] (setting [7]), in assay [3] (setting [8]), in assay [3] (setting [9]) and in assay [3] (setting [10]) was 9.0 throughout. In addition, the CASOB herbicidal rating in assay [4] (rate 0.0158 kg/ha) was 0.0; in assay [4] (rate 0.0313 kg/ha), 6.0; in assay [4] (rate 0.0625 kg/ha), 9.0; in assay [4] (rate 0.1250 kg/ha) it was 9.0. Moreover, the CHEAL rating in assay [5] (0.0156 kg/ha) turned out to be 8.0; in assay [5] (0.0313 kg/ha), 9.0; in assay [5] (0.0625 kg/ha), 9.0; in assay [5] (0.1250 kg/ha) it was 9.0; in assay [5] (0.2500 kg/ha) it was 9.0; in assay [5] (0.5000 kg/ha) it was 9.0. The ORYSAT rating is given as 0.0 in assay [6] (0.0156 kg/ha); 0.5 in assay [6] (0.0313 kg/ha); 2.0 in assay [6] (0.0625 kg/ha); 4.5 in assay [6] (0.1250 kg/ha); 8.0 in assay [6] (0.2500 kg/ha); 9.0 in assay [6] (0.5000 kg/ha).
Turning to `CCOC(=O)CN1C(=O)C(CCO)S/C1=N/c1cc(-n2c(=O)cc(C(F)(F)F)n(C)c2=O)c(F)cc1Cl` (stereo not drawn) [Compound 49, Ethyl 2-{{2-chloro-5-[3,6-dihydro-3-methyl-2,6-dioxo-4-(trifluoromethyl)-1(2H)-pyrimidinyl]-4-fluorophenyl}imino}-5-(hydroxyethyl)-4-oxo-3-thiazolidineacetate], the “Postemergence herbicidal rating TRZAWR” value in assay [1] (Rate 0.0313 kg/ha) was 4.5; in assay [1] (Rate 0.0625 kg/ha), 4.5; in assay [1] (rate 0.0156 kg/ha), 4.0. For the same molecule, the “Postemergence herbicidal rating CHEAL” value in assay [2] (Rate 0.0313 kg/ha), in assay [2] (Rate 0.0625 kg/ha) and in assay [2] (rate 0.0156 kg/ha) was 9.0 throughout. Also, the “Herbicidal rating MOOVA” value in assay [3] (setting [11]), in assay [3] (setting [12]), in assay [3] (setting [13]) and in assay [3] (setting [14]) was 9.0 in each case. The “Postemergence herbicidal rating CASOB” value was determined as 3.0 in assay [4] (Rate 0.0313 kg/ha), 3.0 in assay [4] (Rate 0.0625 kg/ha) and 2.0 in assay [4] (rate 0.0156 kg/ha). Moreover, the “Preemergence herbicidal rating CHEAL” value in assay [5] (rate 0.0156 kg/ha), in assay [5] (rate 0.0313 kg/ha), in assay [5] (rate 0.0625 kg/ha), in assay [5] (rate 0.1250 kg/ha) and in assay [5] (rate 0.2500 kg/ha) was 9.0 each time. Moreover, the “Preemergence herbicidal rating ORYSAT” value in assay [6] (rate 0.0156 kg/ha) is listed as 0.0; in assay [6] (rate 0.0313 kg/ha) it was 0.0; in assay [6] (rate 0.0625 kg/ha), 0.0; in assay [6] (rate 0.1250 kg/ha), 5.0; in assay [6] (rate 0.2500 kg/ha), 5.0.
`C=CCN1C(=O)C(CC(=O)OC)SC1=Nc1cc(-n2c(=O)cc(C(F)(F)F)n(C)c2=O)c(F)cc1Cl` (stereo not drawn) [Compound 64, Methyl 3-allyl-2-{{2-chloro-5-[3,6-dihydro-3-methyl-2,6-dioxo-4-(trifluoromethyl)-1(2H)-pyrimidinyl]-4-fluorophenyl}imino}-4-oxo-5-thiazolidineacetate]: the figures for the “Postemergence herbicidal rating TRZAWR” value in assay [1] (Rate 0.0158 kg/ha), in assay [1] (Rate 0.0315 kg/ha) and in assay [1] (Rate 0.0630 kg/ha) were 6.0, 6.0 and 7.0, respectively. The “Postemergence herbicidal rating CHEAL” value in assay [2] (Rate 0.0158 kg/ha), in assay [2] (Rate 0.0315 kg/ha) and in assay [2] (Rate 0.0630 kg/ha) was 9.0 throughout. Moreover, the “Herbicidal rating MOOVA” value in assay [3] (setting [7]) is 7.0; in assay [3] (setting [8]) it was 9.0; in assay [3] (setting [9]), 9.0; in assay [3] (setting [10]), 9.0. Moreover, the entries for the “Postemergence herbicidal rating CASOB” value in assay [4] (Rate 0.0158 kg/ha), in assay [4] (Rate 0.0315 kg/ha) and in assay [4] (Rate 0.0630 kg/ha) were 2.0, 2.0 and 3.0, respectively. The “Preemergence herbicidal rating CHEAL” value in assay [5] (rate 0.0156 kg/ha), in assay [5] (rate 0.0313 kg/ha), in assay [5] (rate 0.0625 kg/ha), in assay [5] (rate 0.1250 kg/ha) and in assay [5] (rate 0.2500 kg/ha) was 9.0 throughout. For the same molecule, the “Preemergence herbicidal rating ORYSAT” value in assay [6] (rate 0.0156 kg/ha) is given as 0.0; in assay [6] (rate 0.0313 kg/ha), 0.0; in assay [6] (rate 0.0625 kg/ha), 1.0; in assay [6] (rate 0.1250 kg/ha) it was 1.0; in assay [6] (rate 0.2500 kg/ha) it was 5.0.
As for `CCOC(=O)CN1C(=O)CN(C)C1=Nc1cc(-n2c(=O)cc(C(F)(F)F)n(C)c2=O)c(F)cc1Cl` [Compound 25, Ethyl 2-{{2-chloro-5-[3,6-dihydro-3-methyl-2,6-dioxo-4-(trifluoromethyl)-1(2H)-pyrimidinyl]-4-fluorophenyl}imino}-3-methyl-5-oxo-1-imidazolidineacetate], the TRZAWR herbicidal rating in assay [1] (rate 0.0156 kg/ha) came to 2.0; in assay [1] (rate 0.0313 kg/ha) it was 3.0; in assay [1] (rate 0.0625 kg/ha), 3.0. Further, the CHEAL herbicidal rating was 2.0 in assay [2] (rate 0.0156 kg/ha), 5.0 in assay [2] (rate 0.0313 kg/ha) and 9.0 in assay [2] (rate 0.0625 kg/ha). Moreover, the “Herbicidal rating MOOVA” value in assay [3] (setting [11]), in assay [3] (setting [12]), in assay [3] (setting [13]) and in assay [3] (setting [14]) was 9.0 each time. In addition, the CASOB herbicidal rating in assay [4] (rate 0.0156 kg/ha), in assay [4] (rate 0.0313 kg/ha) and in assay [4] (rate 0.0625 kg/ha) was 0.0 in each case. Besides, the “Preemergence herbicidal rating CHEAL” value in assay [5] (rate 0.0156 kg/ha) came out at 7.0; in assay [5] (rate 0.0313 kg/ha), 9.0. In addition, the “CHEAL preemergence herbicidal rating” value in assay [5] (rate 0.0625 kg/ha), in assay [5] (rate 0.1250 kg/ha) and in assay [5] (rate 0.2500 kg/ha) was 9.0 each time. Also, the “Preemergence herbicidal rating ORYSAT” value in assay [6] (rate 0.0156 kg/ha) and in assay [6] (rate 0.0313 kg/ha) was 0.0 each time. The “ORYSAT preemergence herbicidal rating” value in assay [6] (rate 0.0625 kg/ha) turned out to be 0.0; in assay [6] (rate 0.1250 kg/ha), 2.0; in assay [6] (rate 0.2500 kg/ha), 5.0.
Consider `CN1C(=O)C(CC(=O)Nc2ccccc2)SC1=Nc1cc(-n2c(=O)cc(C(F)(F)F)n(C)c2=O)c(F)cc1Cl` (stereo not drawn) [Compound 91, 2-{{2-Chloro-5-[3,6-dihydro-3-methyl-2,6-dioxo-4-(trifluoromethyl)-1(2H)-pyrimidinyl]-4-fluorophenyl}imino}-3-methyl-4-oxo-5-thiazolidineacetanilide], for which the TRZAWR herbicidal rating in assay [1] (rate 0.0158 kg/ha) was 2.5; in assay [1] (rate 0.0315 kg/ha) it was 3.0; in assay [1] (rate 0.0630 kg/ha), 4.0. Moreover, the CHEAL herbicidal rating stood at 0.0 in assay [2] (rate 0.0158 kg/ha), 3.0 in assay [2] (rate 0.0315 kg/ha) and 3.0 in assay [2] (rate 0.0630 kg/ha). Further, the “Herbicidal rating MOOVA” value in assay [3] (setting [7]), in assay [3] (setting [8]), in assay [3] (setting [9]) and in assay [3] (setting [10]) was 9.0 each time. Besides, the results for the CASOB herbicidal rating in assay [4] (rate 0.0158 kg/ha), in assay [4] (rate 0.0315 kg/ha) and in assay [4] (rate 0.0630 kg/ha) were 0.0, 0.0 and 4.0, respectively. In addition, the results for the CHEAL rating in assay [5] (0.1250 kg/ha) and in assay [5] (0.2500 kg/ha) were 4.0 and 9.0, respectively. The ORYSAT rating in assay [6] (0.1250 kg/ha) and in assay [6] (0.2500 kg/ha) was 0.0 each time.
